Measured values: EP0168709A1, “Process for preparing chlorinated phosphorylmethylcarbonyl derivatives, and intermediates for their preparation” (BAYER AG, priority 1984, dated 1986)

What was measured:
Assay type in all cases: in vivo
[1] = test system: Baum-wolle; experiment: Pre-emergence test, greenhouse; settings: 0,5 kg/ha, rated after three weeks vs untreated control, 0 % = no effect, 100 % = total destruction
Text: (§1) Pre-emergence-Test - Gewächshaus
(§2) Lösungsmittel: 5 Gewichtsteile Aceton
(§3) Emulgator: 1 Gewichtsteil Alkylarylpolyglykolether
(§4) Zur Herstellung einer zweckmäßigen Wirkstoffzubereitung vermischt man 1 Gewichtsteil Wirkstoff mit der angegebenen Menge Lösungsmittel, gibt die angegebene Menge Emulgator zu und verdünnt das Konzentrat mit Wasser auf die gewünschte Konzentration.
(§5) Samen der Testpflanzen werden in normalen Boden ausgesät und nach 24 Stunden mit der Wirkstoffzubereitung begossen. Dabei hält man die Wassermenge pro Flächeneinheit zweckmäßigerweise konstant. Die Wirkstoffkonzentration in der Zubereitung spielt keine Rolle, entscheidend ist nur die Aufwandmenge des Wirkstoffs pro Flächeneinheit. Nach drei Wochen wird der Schädigungsgrad der Pflanzen bonitiert in % Schädigung im Vergleich zur Entwicklung der unbehandelten Kontrolle. Es bedeuten: • O % = keine Wirkung (wie unbehandelte Kontrolle) 100 % = totale Vernichtung

[2] = test system: Soja-bohnen; experiment: Pre-emergence test, greenhouse; settings: 0,5 kg/ha, rated after three weeks vs untreated control, 0 % = no effect, 100 % = total destruction
Text: as §1, §2, §3, §4, §5

[3] = test system: Sorghum halepense; experiment: Pre-emergence test, greenhouse; settings: 0,5 kg/ha, rated after three weeks vs untreated control, 0 % = no effect, 100 % = total destruction
Text: as §1, §2, §3, §4, §5

[4] = test system: Testpflanzen; experiment: Pre-emergence test, greenhouse (overall statement); settings: result in words
Text: as §1, §2, §3, §4, §5

Compound: CC(C)CC(=O)C(Cl)(Cl)P(=O)(OC(C)C)OC(C)C [Beispiel 1, O,O-Di-i-propyl-(1,1-dichlor-4-methyl-2-oxo-pentan)-phosphonsäureester]
- Schädigungsgrad der Pflanzen (% Schädigung), Baum-wolle [1]: 0%
- Schädigungsgrad der Pflanzen (% Schädigung), Soja-bohnen [2]: 0%
- Schädigungsgrad der Pflanzen (% Schädigung), Sorghum halepense [3]: 100%
- Wirksamkeit [4]: ausgezeichnete Wirksamkeit
